Results on 1 compound are retold here after patent US12103916B2, “Antifungal compounds” (University of Kentucky Research Foundation, priority 2016, dated 2024).

SMILES strings stand for the structures. Where two headings read alike, the source gives them in different places. Marks after values point to notes of the source that are not given here.

The subject of assay [1] is C. albicans ATCC MYA-1237(R). The experiment in a line: MIC determination, strain F. The assay is classed as cell-based, Candida albicans. Conditions: Candida albicans. The text has this: (§1) For all of our azole derivatives we report their MIC-0 values against C. albicans ATCC 10231 (strain A) and all Aspergillus strains (K-M), which correspond to complete growth inhibition of these fungi. […] The MIC values presented for these five control drugs were either tested herein or correspond to our previously published data^5, 16 as indicated in Table 1.
(§2) Antifungal activity in the absence or presence of serum.
(§3) It is important to note that all comparisons to follow will be done by using the MIC values reported in μg/mL as the data were collected that way. However, we also present in parentheses in Table 2 the corresponding values in micromolar.
(§4) In this manuscript, we performed all activity comparisons by using the MIC values reported in μg/mL (Note: the corresponding MIC values are also provided in μM into parentheses in Tables 1, 2, S1, and S2).

Assay [2] has as its system C. albicans ATCC MYA-1003(R). Briefly: MIC determination, strain G. The assay is classed as cell-based, Candida albicans. The settings on record: Candida albicans.
Description: as §1, §2, §3, §4

Assay [3] concerns Aspergillus nidulans ATCC 38163. Briefly: MIC determination, strain L. The assay is classed as cell-based.
Description: as §1, §2, §3, §4

Assay [4] has the same test system. Conditions: Table 1; strain L; control azoles; previously reported (refs 5, 16); cited from earlier work.
The next assay deals with C. albicans ATCC 64124. Briefly: MIC determination, strain B. Conditions: Candida albicans, ATCC64124. Format: cell-based, Candida albicans. The protocol:
The antifungal activity of our new azole compounds 1-9 and 24-41 was first evaluated against a panel of seven Candida albicans strains (A-G), three non-albicans Candida strains […], and three Aspergillus strains (K-M) in a concentration range of 0.03-31.2 μg/mL (Table 1). […] For all of our azole derivatives we report their MIC-0 values against C. albicans ATCC 10231 (strain A) and all Aspergillus strains (K-M), which correspond to complete growth inhibition of these fungi. […] The commercially available antifungals AmB, FLC, ITC, POS, and VOR were used as reference drugs for comparison. The MIC values presented for these five control drugs were either tested herein or correspond to our previously published data^5, 16 as indicated in Table 1.
Antifungal activity in the absence or presence of serum. The antifungal activity of the newly prepared alkylated piperazine/morpholine-azole hybrids 16-28, of intermediate 14 that we used to verify that only final compounds exert antifungal activity, as well as that of alkylated piperazine/morpholine derivatives 1-10 were first evaluated against a panel of seven C. albicans (ATCC 10231 (A), ATCC 64124(R) (B), ATCC MYA-2876(S) (C), ATCC 90819(R) (D), ATCC MYA-2310(S) (E), ATCC MYA-1237(R) (F), and ATCC MYA-1003(R) (G)), three non-albicans Candida (C. glabrata ATCC 2001 (H), C. krusei ATCC 6258 (I), and C. parapsilosis ATCC 22019 (J)), and three Aspergillus (A. flavus ATCC MYA-3631 (K), A. nidulans ATCC 38163 (L), and A. terreus ATCC MYA-3633 (M)) strains using a concentration range of 0.03-31.3 μg/mL (Table 2).
Commercially available antifungal agents such as AmB, CAS, FLC, and VOR were used as positive controls for comparison. […] It is important to note that all comparisons to follow will be done by using the MIC values reported in μg/mL as the data were collected that way. However, we also present in parentheses in Table 2 the corresponding values in micromolar.
We used the commercially available antifungal agents such as AmB, caspofungin (CAS), FLC, and VOR as positive controls for comparison. For derivatives 5-16 as well as the reference drugs AmB and CAS, we reported MIC-0 values, which correspond to no visible growth. […] In this manuscript, we performed all activity comparisons by using the MIC values reported in μg/mL (Note: the corresponding MIC values are also provided in μM into parentheses in Tables 1, 2, S1, and S2).

For assay [5], the system named is Aspergillus terreus ATCC MYA-3633. Briefly: MIC determination, strain M. Format: cell-based. Conditions: Aspergillus terreus, Table 2, all compounds and controls.
Description: as §1, §2, §3, §4

For assay [6], the system named is ergosterol biosynthetic pathway (sterol 14α-demethylase) in C. albicans ATCC 10231 (strain A). Briefly: Sterol composition by GC-MS, strain A. Format: cell-based, Candida albicans. From the text:
FIG. 7A-FIG. 7H includes FIG. 7A. A simplified ergosterol biosynthetic pathway and products resulting from inhibition of ERG11. FIG. 7B-G. include GC-MS chromatograms of the sterols extracted from untreated and antifungals treated C. albicans strains. […] The peaks are for lanosterol (1), ergosterol (2), eburicol (3), 14-alpha-methyl ergosta 8,24(28)-dien-3-beta,6-alpha-diol (4), and unknown sterols (5 and 6). FIG. 7H is a table summarizing the percentage of each sterol from panels B-G.
FIG. 13A. A simplified ergosterol biosynthetic pathway and products resulting from inhibition of ERG11. FIG. 13B-FIG. 13F. GC-MS chromatograms of the sterols extracted from untreated and antifungal-treated C. albicans ATCC 10231 (strain A). […] The peaks in these chromatograms are for lanosterol (1), ergosterol (2), eburicol (3), 14α-methyl ergosta-8,24(28)-dien-3β,6α-diol (4), and three unknown sterols (5-7). FIG. 13G includes a table summarizing the percentage of each sterol from panels B-F.
No drug controls were also performed (FIGS. 7D and G).
Determination of sterol composition in c. albicans in the presence and absence of drugs. […] By using gas chromatography-mass spectrometry (GC-MS), we investigated the potential of the synthetic compounds to exert their antifungal activity by inhibiting the sterol 14α-demethylase enzyme of the ergosterol biosynthetic pathway (FIG. 13). […] A no drug control was also performed (FIG. 13A).
Since out of our compounds displaying antifungal activity only compound 8 caused membrane disruption of C. albicans ATCC 10231 (strain A) in the membrane permeabilization assay (section 2.6), we decided to explore by using gas chromatography-mass spectrometry (GC-MS) the effect of compounds 8 and 9 on sterol composition during ergosterol biosynthesis (the mechanism of action of other conventional azoles). […] We also used VOR at 0.12 μg/mL and no drug control for comparison.

[7] abbreviates: read-out: MIC (MIC-2), in parentheses.
[8] abbreviates: Ex.2 series, VOR 0.12, 20 0.48, 26 0.975 μg/mL.
Setting [9] is: Ex.3 series, VOR 0.12, 8 and 9 at sub-MIC […] and 0.975 μg/mL.

For the compound `C[C@@H](c1ncncc1F)[C@](O)(Cn1cncn1)c1ccc(F)cc1F` [VOR, voriconazole], the MIC was 7.8 µg/mL in assay [1] (read-out: MIC (MIC-2)); 22.3 µM in assay [1] (setting [7]); 1.95 µg/mL in assay [2] (read-out: MIC (MIC-2)); 5.6 µM in assay [2] (setting [7]); 0.12 µg/mL in assay [3] (ATCC38163, Table 2, strain L, all compounds and controls, read-out: MIC (MIC-0)); 0.34 µM in assay [3] (ATCC38163, Table 2, strain L, all compounds and controls, read-out: MIC (MIC-0), in parentheses). Besides, the MIC in assay [3] (ATCC38163, Table 3, Ex.2 compounds, no FBS, read-out: MIC, Aspergillus nidulans ATCC 38163 (L) (no FBS)) was 0.12 µg/mL; in assay [3] (ATCC38163, read-out: MIC, Aspergillus nidulans ATCC 38163 (L) (+10% FBS), Table 3, Ex.2 compounds, +10% FBS) it was 0.12 µg/mL; in the assay with C. albicans ATCC 64124 (read-out: MIC (MIC-2)), 3.9 µg/mL; in the assay with C. albicans ATCC 64124 (setting [7]), 11.2 µM; in assay [5] (read-out: MIC (MIC-0)), 0.12 µg/mL; in assay [5] (read-out: MIC (MIC-0), in parentheses) it was 0.34 µM. Also, in assay [4], the “MIC (MIC-2)” value is recorded as 0.03^c μg/mL. Moreover, the “ergosterol (2), percentage of sterols” value in assay [6] (Ex.2 series, FLC 1.95, VOR 0.12, 20 0.48, 26 0.975 μg/mL) is given as 64.93%; in assay [6] (setting [9]), 50.80%. Besides, the figures for the “eburicol (3), percentage of sterols” value in assay [6] (setting [8]) and in assay [6] (setting [9]) were 2.14% and 1.73%, respectively. Further, the “lanosterol (1), percentage of sterols” value is listed as 18.49% in assay [6] (setting [8]) and 15.21% in assay [6] (setting [9]).

By MIC is commonly meant the lowest concentration found to suppress growth.
